pIC50, pKi: −log10 of the molar value.
Experiments:
[1] = test system: 87 targets including G-protein coupled receptors, nuclear receptors, other cell surface receptors, ion channels, enzymes, and transporters; experiment: Eurofins Panlabs SafetyScreen off-target selectivity panel; details: single concentration 10 μM
Description: (§1) Compound 1 was tested at Eurofins Panlabs Discovery Services Taiwan, Ltd. for evaluation in their SafetyScreen™ panel of assays. This included selectivity assays at 87 targets including G-protein coupled receptors, nuclear receptors, other cell surface receptors, ion channels, enzymes, and transporters.

sodium channel (site 2) = experiment: SafetyScreen panel: sodium channel site 2; assay type: binding; details: 10 μM
Description: as §1

MCSR = molecular target: T1, MCSR (Homo sapiens, UniProt P33032); experiment: Commercially available MCSR membrane binding assay; details: greater than highest concentration tested
T1 construct: purchased
Description: (§2) The selectivity over other human MCR subtypes was evaluated using commercially available MC1R, MC3R, MC4R, and MCSR membrane binding assays. The half maximal inhibitory concentration in the binding assays (IC50) were determined to be greater than the highest concentration tested, or >10,000 nM, >1000 nM, >10,000 nM and >1000 nM for MC1R, MC3R, MC4R and MCSR, respectively. Compound 1 is >2900-fold selective for MC2R versus the other human MCRs.

MC4R = molecular target: T2, MC4R (Homo sapiens, UniProt P32245); experiment: Commercially available MC4R membrane binding assay; details: greater than highest concentration tested
T2 construct: purchased
Description: as §2

[2] = test system: corticosterone and adrenal gland hypertrophy; experiment: Continuous pump-administration of ACTH(1-24) in male rats, 7 days of daily oral dosing; assay type: in vivo, rat
Description: Exogenous ACTH(1-24) (100 μg/kg/day) was administered to male rats via subcutaneously implanted osmotic pumps. The ability of repeated daily oral administration of Compound 1 to suppress corticosterone over 7 days was evaluated.

human MC2R = molecular target: T3, human MC2R (Homo sapiens, UniProt Q01718); experiment: Inhibition of ACTH binding: radioactive competition binding assay, hMC2R membranes
T3 construct: host or cells: CellSensor CRE-bla CHO-K1
Description: Crude membrane fractions are prepared from CellSensor CRE-bla CHO-K1 cells stably expressing functional hMC2 receptor (ThermoFisher #K1483). The cells are cultured to 85-100% confluency in growth media [GlutaMax DMEM (Gibco #10569-010) supplemented with 10% dialyzed fetal bovine serum (Gemini Bio-Products #100-108), 0.1 mM non-essential amino acids (Gibco #11140-050), 100 U/mL penicillin; 100 μg/mL streptomycin; 2 mM L-glutamine (Gemini Bio-Products #400-110), 5 μg/mL blasticidin (GoldBio #B-800-100), 100 μg/mL zeocin (Invitogen #R25005) and 600 μg/mL hygromycin B (GoldBio #31282-04-9)]. Cells were collected and washed in Dulbecco's phosphate buffered saline (Corning #21-031-CV). […]
The inhibition of binding to the human MC2R receptor was measured in a radioactive competition binding assay using the radiolabeled [^125I]-TYR^23]-ACTH (1-39) ligand (PerkinElmer #NEX083, custom synthesis) as the probe ligand for the receptor. […] The radioactive signal was detected using a MicroBetaTriLux 1450 LSC (PerkinElmer). […]
The selectivity over other human MCR subtypes was evaluated using commercially available MC1R, MC3R, MC4R, and MCSR membrane binding assays. […]

T3 sequence (Q01718 whole entry): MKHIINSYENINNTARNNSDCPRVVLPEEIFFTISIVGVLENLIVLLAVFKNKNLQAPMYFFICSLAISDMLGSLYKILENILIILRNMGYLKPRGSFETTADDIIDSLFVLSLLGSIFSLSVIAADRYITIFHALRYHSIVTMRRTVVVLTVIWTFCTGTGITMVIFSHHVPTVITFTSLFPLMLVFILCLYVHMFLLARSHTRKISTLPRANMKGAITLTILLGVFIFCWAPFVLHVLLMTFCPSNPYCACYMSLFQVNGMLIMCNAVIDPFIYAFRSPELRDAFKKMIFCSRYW
T3 sequence (Q8TCY5 whole entry partner): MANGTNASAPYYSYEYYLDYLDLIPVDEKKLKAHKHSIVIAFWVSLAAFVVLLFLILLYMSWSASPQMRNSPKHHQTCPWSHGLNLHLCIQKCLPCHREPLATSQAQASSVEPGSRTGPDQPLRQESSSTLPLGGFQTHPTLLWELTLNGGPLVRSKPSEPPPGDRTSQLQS
T1 sequence (P33032 whole entry): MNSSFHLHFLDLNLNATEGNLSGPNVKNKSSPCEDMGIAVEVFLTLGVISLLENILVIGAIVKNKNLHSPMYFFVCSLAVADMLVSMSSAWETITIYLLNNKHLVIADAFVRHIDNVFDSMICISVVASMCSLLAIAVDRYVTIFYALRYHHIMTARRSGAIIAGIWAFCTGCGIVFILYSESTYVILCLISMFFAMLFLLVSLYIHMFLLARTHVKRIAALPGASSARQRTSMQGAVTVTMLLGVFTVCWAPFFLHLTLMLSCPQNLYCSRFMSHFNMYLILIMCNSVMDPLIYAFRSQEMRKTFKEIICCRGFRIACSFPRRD
T2 sequence (P32245 whole entry): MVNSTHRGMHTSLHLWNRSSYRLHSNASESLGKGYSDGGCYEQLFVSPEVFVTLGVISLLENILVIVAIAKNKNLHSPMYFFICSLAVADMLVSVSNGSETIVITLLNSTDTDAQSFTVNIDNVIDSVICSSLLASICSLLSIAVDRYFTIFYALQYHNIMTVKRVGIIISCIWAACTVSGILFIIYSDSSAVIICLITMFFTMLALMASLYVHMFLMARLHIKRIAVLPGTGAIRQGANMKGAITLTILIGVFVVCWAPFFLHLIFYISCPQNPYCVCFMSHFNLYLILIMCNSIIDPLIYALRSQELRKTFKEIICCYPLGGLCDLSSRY

## CCOc1ccccc1-c1ccc(N2CCN(C(=O)C3(C(F)(F)F)CCC3)C[C@H]2CC)c(C(=O)N[C@@H]2CN3CCC2CC3)n1 [Compound 1, 6-(2-ethoxyphenyl)-3-((R)-2-ethyl-4-(1-(trifluoromethyl)cyclobutane-1-carbonyl)piperazin-1-yl)-N—((S)-quinuclidin-3-yl)picolinamide]
[1]
  activity across the panel: little activity across the panel
Sodium channel (site 2)
  inhibition/activity: > 70%
MCSR
  pIC50: < 6.00
MC4R
  pIC50: < 5.00
[2]; 10 and 30 mg/kg/day vs vehicle
  adrenal gland hypertrophy (adrenal gland weight and adrenal cortical area): ameliorated adrenal gland hypertrophy
[2]; ≥10 mg/kg/day, 1 hour post-dose on Day 1 and Day 7
  corticosterone: dose-dependently suppressed
Human MC2R; hMC2R membranes, [125I]-Tyr23-ACTH(1-39) probe, read-out: equilibrium inhibitory constant (Ki) in a binding assay
  pKi: > 8.00
Human MC2R; over MC1R, MC3R, MC4R, MCSR
  selectivity for MC2R versus the other human MCRs: > 2900 fold
